Several values for one entry are separate records, joined by “and”; a condition that tells them apart may be missing. Equal values may be shown once. Inconclusive results and toxic doses are left out. Cut-off read from the data, not from the text of the source: active = T/C of 150% or more; inactive = T/C below 125%.
System: L1210 leukemia ip in BDF1 mice, survival T/C
Test: NCI In Vivo Anticancer Drug Screen. Data for tumor model L1210 Leukemia (intraperitoneal) in B6D2F1 (BDF1) mice
Settings: endpoint: mean survival time, higher = longer survival
Procedure, shortened: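 Transplanted-tumor mice were given test agent; controls received vehicle only. Survival readings from the two groups were divided (treated over control).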

[1] = dose: 100.0 mg/kg/injection, schedule: Q01DX009 (ip), vehicle: Klucel (hydroxypropylcellulose) (HPC)
[2] = dose: 100.0 mg/kg/injection, schedule: Q04DX003 (ip), vehicle: Klucel (hydroxypropylcellulose) (HPC)
[3] = dose: 200.0 mg/kg/injection, schedule: Q01DX009 (ip), vehicle: Klucel (hydroxypropylcellulose) (HPC)
[4] = dose: 200.0 mg/kg/injection, schedule: Q04DX003 (ip), vehicle: Klucel (hydroxypropylcellulose) (HPC)
[5] = dose: 100.0 mg/kg/injection, schedule: Q01DX009 (ip), vehicle: saline with Tween-80
[6] = dose: 200.0 mg/kg/injection, schedule: Q01DX009 (ip), vehicle: saline with Tween-80
[7] = dose: 100.0 mg/kg/injection, schedule: Q04DX003 (ip), vehicle: saline
[8] = dose: 400.0 mg/kg/injection, schedule: Q04DX003 (ip), vehicle: Klucel (hydroxypropylcellulose) (HPC)

Measured: T/C

C=C(COc1ccc(Cl)cc1)COc1ccc(Cl)cc1
inactive: dose: 12.5 mg/kg/injection, schedule: Q04DX002 (ip), vehicle: other 115 % of control and 117 % of control | dose: 50.0 mg/kg/injection, schedule: Q04DX003 (ip), vehicle: other 98 % of control and 107 % of control | dose: 100.0 mg/kg/injection, schedule: Q01DX001 (ip), vehicle: other 95 % of control and 99 % of control | dose: 100.0 mg/kg/injection, schedule: Q04DX003 (ip), vehicle: other 96 % of control and 113 % of control | dose: 200.0 mg/kg/injection, schedule: Q01DX001 (ip), vehicle: other 96 % of control and 98 % of control | dose: 200.0 mg/kg/injection, schedule: Q04DX003 (ip), vehicle: other 93 % of control and 106 % of control | dose: 400.0 mg/kg/injection, schedule: Q01DX001 (ip), vehicle: other 91 % of control | dose: 400.0 mg/kg/injection, schedule: Q04DX003 (ip), vehicle: other 95 % of control and 113 % of control

Cc1ccc(NC(=O)NCCCl)cc1NC(=O)NCCCl
inactive: dose: 50.0 mg/kg/injection, schedule: Q01DX009 (ip), vehicle: Klucel (hydroxypropylcellulose) (HPC) 106 % of control | [1] 97 % of control | [2] 94 % of control | [3] 108 % of control | [4] 95 % of control

S=C(S)N1CCC(CCCC2CCN(C(=S)S)CC2)CC1
inactive: [5] 88 % of control | dose: 100.0 mg/kg/injection, schedule: Q04DX003 (ip), vehicle: saline with Tween-80 100 % of control | [6] 88 % of control | dose: 200.0 mg/kg/injection, schedule: Q04DX003 (ip), vehicle: saline with Tween-80 89 % of control | dose: 400.0 mg/kg/injection, schedule: Q04DX003 (ip), vehicle: saline with Tween-80 105 % of control

O=C1OC(c2cccc([N+](=O)[O-])c2)=N/C1=C\c1ccc(O)cc1
inactive: dose: 100.0 mg/kg/injection, schedule: Q04DX002 (ip), vehicle: saline 101 % of control | dose: 200.0 mg/kg/injection, schedule: Q04DX002 (ip), vehicle: saline 101 % of control | dose: 400.0 mg/kg/injection, schedule: Q04DX002 (ip), vehicle: saline 101 % of control

OCC1OC(n2c3ccccc3c3ccccc32)C(O)C1O (configuration not stated)
inactive: dose: 60.0 mg/kg/injection, schedule: Q04DX002 (ip), vehicle: DMSO 97 % of control | dose: 120.0 mg/kg/injection, schedule: Q04DX002 (ip), vehicle: DMSO 102 % of control

C=CC[N+](CCO)(CCO)CCCCCCCCCCCCCCCCCC
inactive: dose: 12.5 mg/kg/injection, schedule: Q04DX002 (ip), vehicle: saline 102 % of control | dose: 25.0 mg/kg/injection, schedule: Q04DX002 (ip), vehicle: saline 97 % of control

CC(C)C(=O)Nc1ccc([N+](=O)[O-])c(C(F)(F)F)c1
inactive: dose: 100.0 mg/kg/injection, schedule: Q01DX001 (ip), vehicle: Klucel (hydroxypropylcellulose) (HPC) 102 % of control | [1] 93 % of control and 109 % of control | dose: 100.0 mg/kg/injection, schedule: Q01DX009 (ip), vehicle: saline 105 % of control | dose: 100.0 mg/kg/injection, schedule: Q04DX002 (ip), vehicle: Klucel (hydroxypropylcellulose) (HPC) 97 % of control and 92 % of control | [2] 100 % of control | [7] 108 % of control | dose: 200.0 mg/kg/injection, schedule: Q01DX001 (ip), vehicle: Klucel (hydroxypropylcellulose) (HPC) 102 % of control | [3] 100 % of control and 103 % of control | dose: 200.0 mg/kg/injection, schedule: Q01DX009 (ip), vehicle: saline 92 % of control | dose: 200.0 mg/kg/injection, schedule: Q04DX002 (ip), vehicle: Klucel (hydroxypropylcellulose) (HPC) 100 % of control and 102 % of control | [4] 109 % of control | dose: 200.0 mg/kg/injection, schedule: Q04DX003 (ip), vehicle: saline 101 % of control | dose: 400.0 mg/kg/injection, schedule: Q01DX001 (ip), vehicle: Klucel (hydroxypropylcellulose) (HPC) 110 % of control | dose: 400.0 mg/kg/injection, schedule: Q04DX002 (ip), vehicle: Klucel (hydroxypropylcellulose) (HPC) 100 % of control and 113 % of control | [8] 92 % of control | dose: 400.0 mg/kg/injection, schedule: Q04DX003 (ip), vehicle: saline 88 % of control

CSC(N)=Nc1ccc(C(=O)O)cc1
inactive: [5] 105 % of control | [6] 112 % of control | dose: 400.0 mg/kg/injection, schedule: Q01DX009 (ip), vehicle: saline with Tween-80 97 % of control

CCOC(=O)CCCCCCCCCCOc1ccc(C(C)=O)cc1
inactive: [2] 94 % of control | [4] 100 % of control | [8] 97 % of control

Cc1ccccc1NC(=O)Nc1ccc(Nc2ccccc2)cc1
inactive: [1] 97 % of control | [3] 91 % of control | dose: 400.0 mg/kg/injection, schedule: Q01DX009 (ip), vehicle: Klucel (hydroxypropylcellulose) (HPC) 100 % of control

CC(C)CCC[C@@H](C)[C@H]1CC[C@H]2[C@@H]3CC=C4C[C@@H](OC(=O)Cc5ccc(N(CCCl)CCCl)cc5)CC[C@]4(C)[C@H]3CC[C@]12C
inactive: dose: 50.0 mg/kg/injection, schedule: Q01DX001 (sc), vehicle: steriod suspending solution 110 % of control | dose: 50.0 mg/kg/injection, schedule: Q01DX009 (oral), vehicle: saline 98 % of control | dose: 100.0 mg/kg/injection, schedule: Q01DX001 (sc), vehicle: steriod suspending solution 96 % of control | dose: 100.0 mg/kg/injection, schedule: Q01DX009 (oral), vehicle: other 121 % of control | dose: 100.0 mg/kg/injection, schedule: Q01DX009 (oral), vehicle: saline 98 % of control | dose: 100.0 mg/kg/injection, schedule: Q01DX009 (sc), vehicle: other 109 % of control | dose: 200.0 mg/kg/injection, schedule: Q01DX001 (sc), vehicle: steriod suspending solution 100 % of control | dose: 200.0 mg/kg/injection, schedule: Q01DX009 (oral), vehicle: saline 102 % of control | dose: 200.0 mg/kg/injection, schedule: Q01DX009 (sc), vehicle: other 111 % of control | dose: 250.0 mg/kg/injection, schedule: Q01DX015 (ip), vehicle: steriod suspending solution 95 % of control | dose: 400.0 mg/kg/injection, schedule: Q01DX001 (sc), vehicle: steriod suspending solution 115 % of control | dose: 400.0 mg/kg/injection, schedule: Q01DX009 (oral), vehicle: other 116 % of control | dose: 400.0 mg/kg/injection, schedule: Q01DX009 (oral), vehicle: saline 91 % of control | dose: 400.0 mg/kg/injection, schedule: Q01DX009 (sc), vehicle: other 106 % of control | dose: 400.0 mg/kg/injection, schedule: Q01DX015 (ip), vehicle: steriod suspending solution 111 % of control | dose: 800.0 mg/kg/injection, schedule: Q01DX009 (oral), vehicle: other 98 % of control | dose: 800.0 mg/kg/injection, schedule: Q01DX009 (oral), vehicle: saline 96 % of control

O=C(Nc1ccccc1C(F)(F)F)OCc1ccco1
inactive: dose: 100.0 mg/kg/injection, schedule: Q01DX001 (ip), vehicle: gum acacia 102 % of control and 91 % of control | dose: 100.0 mg/kg/injection, schedule: Q01DX009 (ip), vehicle: gum acacia 100 % of control | dose: 100.0 mg/kg/injection, schedule: Q04DX002 (ip), vehicle: gum acacia 95 % of control and 101 % of control | dose: 100.0 mg/kg/injection, schedule: Q04DX003 (ip), vehicle: gum acacia 94 % of control and 99 % of control | dose: 200.0 mg/kg/injection, schedule: Q01DX001 (ip), vehicle: gum acacia 98 % of control and 105 % of control | dose: 200.0 mg/kg/injection, schedule: Q01DX009 (ip), vehicle: gum acacia 97 % of control | dose: 200.0 mg/kg/injection, schedule: Q04DX002 (ip), vehicle: gum acacia 99 % of control and 108 % of control | dose: 200.0 mg/kg/injection, schedule: Q04DX003 (ip), vehicle: gum acacia 96 % of control and 92 % of control | dose: 400.0 mg/kg/injection, schedule: Q01DX001 (ip), vehicle: gum acacia 94 % of control and 95 % of control | dose: 400.0 mg/kg/injection, schedule: Q01DX009 (ip), vehicle: gum acacia 105 % of control | dose: 400.0 mg/kg/injection, schedule: Q04DX002 (ip), vehicle: gum acacia 99 % of control and 101 % of control | dose: 400.0 mg/kg/injection, schedule: Q04DX003 (ip), vehicle: gum acacia 108 % of control and 92 % of control

CCOC(=O)/C(=C\c1ccccn1)C(C)=O
inactive: dose: 25.0 mg/kg/injection, schedule: Q04DX003 (ip), vehicle: saline 102 % of control | dose: 50.0 mg/kg/injection, schedule: Q04DX003 (ip), vehicle: saline 102 % of control | [7] 102 % of control

Source: PubChem BioAssay AID248 (DTP/NCI, 2004)
